Measured values taken from paper PMC7753147, “High-throughput determination of protein affinities using unmodified peptide libraries in nanomolar scale” (iScience, 2020).

Columns and labels:
native geph = experiment: µSPOT peptide microarray binding assay with native geph from mouse brain lysate; conditions: normalized to most prominent spot, n = 2 array-internal duplicate
gephE = experiment: µSPOT peptide microarray binding assay with recombinant gephE; conditions: normalized to most prominent spot, n = 2 array-internal duplicate
[1] = overlapping GABAAR α3 peptide library on µSPOT array, 6% mouse brain lysate
[2] = overlapping GABAAR α3 peptide library on µSPOT array, 20 nM gephE
[3] = overlapping GlyR β peptide library on µSPOT array, 3% mouse brain lysate
[4] = overlapping GlyR β peptide library on µSPOT array, 50 nM gephE, anti-gephyrin 3B11/HRP chemiluminescence

| Sequence | Native geph Binding Intensity [norm.] (native geph; [1]) | gephE Binding Intensity [norm.] (gephE; [2]) | Native geph Binding Intensity [norm.] (native geph; [3]) | gephE Binding Intensity [norm.] (gephE; [4]) |
| --- | --- | --- | --- | --- |
| NLAKDTEFSTISKSAAAPSA [GABAAR α3 residues 405-424, µSpot library] | 0.122 norm. | 0.029 norm. |  |  |
| KNKKPPPAKPVIPTAAKRID [Glycine receptor subunit beta_036, GlyR β residues 454-473] |  |  | 0.068 norm. | 0.016 norm. |
| APTKKNTTFNIVGTTYPINL [GABAAR α3 residues 387-406, µSpot library] | 0.767 norm. | 1.000 norm. |  |  |
| STPTAIASPKATYVQDSPAE [GABAAR α3 residues 426-445, µSpot library] | 0.067 norm. | 0.019 norm. |  |  |
| KKKTPAAPTKKNTTFNIVGT [GABAAR α3 residues 381-400, µSpot library] | 0.115 norm. | 0.053 norm. |  |  |
| PEALEMKKKTPAAPTKKNTT [GABAAR α3 residues 375-394, µSpot library] | 0.071 norm. | 0.038 norm. |  |  |
| TAIASPKATYVQDSPAETKT [GABAAR α3 residues 429-448, µSpot library] | 0.060 norm. | 0.018 norm. |  |  |
| GTTYPINLAKDTEFSTISKS [GABAAR α3 residues 399-418, µSpot library] | 0.098 norm. | 0.030 norm. |  |  |
| PQAKNKKPPPAKPVIPTAAK [Glycine receptor subunit beta_035, GlyR β residues 451-470] |  |  | 0.087 norm. | 0.012 norm. |
| KATYVQDSPAETKTYNSVSK [GABAAR α3 residues 435-454, µSpot library] | 0.059 norm. | 0.070 norm. |  |  |
| LGKPQAKNKKPPPAKPVIPT [Glycine receptor subunit beta_034, GlyR β residues 448-467] |  |  | 0.061 norm. | 0.022 norm. |
| IEVNNGLGKPQAKNKKPPPA [Glycine receptor subunit beta_032, GlyR β residues 442-461] |  |  | 0.075 norm. | 0.009 norm. |
| KARIAKAEQADGKGGNAAKK [Glycine receptor subunit beta_006, GlyR β residues 364-383] |  |  | 0.091 norm. | 0.040 norm. |
| SASSTPTAIASPKATYVQDS [GABAAR α3 residues 423-442, µSpot library] | 0.075 norm. | 0.022 norm. |  |  |
| NYFTKRSWAWEGKKVPEALE [GABAAR α3 residues 360-379, µSpot library] | 0.048 norm. | 0.062 norm. |  |  |
| KSAAAPSASSTPTAIASPKA [GABAAR α3 residues 417-436, µSpot library] | 0.103 norm. | 0.030 norm. |  |  |
| YVQDSPAETKTYNSVSKVDK [GABAAR α3 residues 438-457, µSpot library] | 0.058 norm. | 0.073 norm. |  |  |
| TPAAPTKKNTTFNIVGTTYP [GABAAR α3 residues 384-403, µSpot library] | 1.000 norm. | 0.948 norm. |  |  |
| TRCKKVCTSKSDLRSNDFSI [Glycine receptor subunit beta_019, GlyR β residues 403-422] |  |  | 0.089 norm. | 0.033 norm. |
| SIVGSLPRDFELSNYDCYGK [Glycine receptor subunit beta_025, GlyR β residues 421-440] |  |  | 0.301 norm. | 0.291 norm. |
| KSDLRSNDFSIVGSLPRDFE [Glycine receptor subunit beta_022, GlyR β residues 412-431] |  |  | 0.945 norm. | 0.972 norm. |
| NDFSIVGSLPRDFELSNYDC [Glycine receptor subunit beta_024, GlyR β residues 418-437] |  |  | 0.561 norm. | 0.599 norm. |
| SWAWEGKKVPEALEMKKKTP | 0.118 norm. | 0.064 norm. |  |  |
| NNPKRVEAEKARIAKAEQAD [Glycine receptor subunit beta_003, GlyR β residues 355-374] |  |  | 0.109 norm. | 0.023 norm. |
| KGGNAAKKNTVNGTGTPVHI [Glycine receptor subunit beta_010] |  |  | 0.077 norm. | 0.024 norm. |

| Sequence | Native geph Binding Intensity [norm.] (native geph; [1]) | gephE Binding Intensity [norm.] (gephE; [2]) | Native geph Binding Intensity [norm.] (native geph; [3]) | gephE Binding Intensity [norm.] (gephE; [4]) |
| --- | --- | --- | --- | --- |
| PRDFELSNYDCYGKPIEVNN [Glycine receptor subunit beta_027, GlyR β residues 427-446] |  |  | 0.521 norm. | 0.428 norm. |
| FELSNYDCYGKPIEVNNGLG [Glycine receptor subunit beta_028, GlyR β residues 430-449] |  |  | 0.180 norm. | 0.112 norm. |
| NNGLGKPQAKNKKPPPAKPV [Glycine receptor subunit beta_033, GlyR β residues 445-464] |  |  | 0.041 norm. | 0.055 norm. |
| DCYGKPIEVNNGLGKPQAKN [Glycine receptor subunit beta_030, GlyR β residues 436-455] |  |  | 0.093 norm. | 0.049 norm. |
| YPINLAKDTEFSTISKSAAA [GABAAR α3 residues 402-421, µSpot library] | 0.114 norm. | 0.039 norm. |  |  |
| VVQVMLNNPKRVEAEKARIA [Glycine receptor subunit beta_001, GlyR β residues 349-368] |  |  | 0.081 norm. | 0.017 norm. |
| VMLNNPKRVEAEKARIAKAE [Glycine receptor subunit beta_002, GlyR β residues 352-371] |  |  | 0.082 norm. | 0.010 norm. |
| GTGTPVHISTLQVGETRCKK [Glycine receptor subunit beta_014, GlyR β residues 388-407] |  |  | 0.068 norm. | 0.044 norm. |
| ASPKATYVQDSPAETKTYNS [GABAAR α3 residues 432-451, µSpot library] | 0.050 norm. | 0.020 norm. |  |  |
| TISKSAAAPSASSTPTAIAS [GABAAR α3 residues 414-433, µSpot library] | 0.116 norm. | 0.024 norm. |  |  |
| KKVCTSKSDLRSNDFSIVGS [Glycine receptor subunit beta_020, GlyR β residues 406-425] |  |  | 0.309 norm. | 0.393 norm. |
| TLQVGETRCKKVCTSKSDLR [Glycine receptor subunit beta_017, GlyR β residues 397-416] |  |  | 0.054 norm. | 0.016 norm. |
| TPVHISTLQVGETRCKKVCT [Glycine receptor subunit beta_015, GlyR β residues 391-410] |  |  | 0.060 norm. | 0.013 norm. |
| KKNTVNGTGTPVHISTLQVG [Glycine receptor subunit beta_012] |  |  | 0.085 norm. | 0.023 norm. |
| KPPPAKPVIPTAAKRIDL [Glycine receptor subunit beta_037, GlyR β residues 457-474] |  |  | 0.075 norm. | 0.037 norm. |
| KKNTTFNIVGTTYPINLAKD [GABAAR α3 residues 390-409, µSpot library] | 0.243 norm. | 0.443 norm. |  |  |
| ADGKGGNAAKKNTVNGTGTP [Glycine receptor subunit beta_009] |  |  | 0.067 norm. | 0.015 norm. |
| KRVEAEKARIAKAEQADGKG [Glycine receptor subunit beta_004] |  |  | 0.117 norm. | 0.052 norm. |
| KDTEFSTISKSAAAPSASST [GABAAR α3 residues 408-427, µSpot library] | 0.136 norm. | 0.020 norm. |  |  |
| WEGKKVPEALEMKKKTPAAP [GABAAR α3 residues 369-388, µSpot library] | 0.105 norm. | 0.048 norm. |  |  |
| AAPSASSTPTAIASPKATYV [GABAAR α3 residues 420-439, µSpot library] | 0.080 norm. | 0.038 norm. |  |  |
| LRSNDFSIVGSLPRDFELSN [Glycine receptor subunit beta_023, GlyR β residues 415-434] |  |  | 1.000 norm. | 1.000 norm. |
| LEMKKKTPAAPTKKNTTFNI [GABAAR α3 residues 378-397, µSpot library] | 0.085 norm. | 0.059 norm. |  |  |
| NIVGTTYPINLAKDTEFSTI [GABAAR α3 residues 396-415, µSpot library] | 0.114 norm. | 0.044 norm. |  |  |
| EAEKARIAKAEQADGKGGNA [Glycine receptor subunit beta_005, GlyR β residues 361-380] |  |  | 0.113 norm. | 0.024 norm. |
